# From US8889670B2, “Heterocyclic compounds which modulate the CB2 receptor” (Boehringer Ingelheim International GmbH, priority 2009, dated 2014)
# Like-named read-outs stand apart in the source and are kept apart here.
# Biological target: T1, human CB2R (Homo sapiens, UniProt P34972)
# T1 construct: host or cells: CHO cells
# Assay: CB2R mediated modulation of cAMP synthesis (forskolin-stimulated cAMP, CHO cells expressing human CB2R)
# Assay type: cell-based
# Protocol: B. CB2R Mediated Modulation of cAMP Synthesis:
# Compounds of the invention were evaluated for their CB2 agonist or inverse agonistic activity in accordance with the following experimental method.
# CHO cells expressing human CB2R (Euroscreen) were plated at a density of 5000 cells per well in 384 well plates and incubated overnight at 37° C. After removing the media, the cells were treated with test compounds diluted in stimulation buffer containing 1 mM IBMX, 0.25% BSA and 10 uM Forskolin. The assay was incubated for 30 minutes at 37° C. Cells were lysed and the cAMP concentration was measured using DiscoverX-XS cAMP kit, following the manufacturer's protocol. In this setting, agonists will decrease forskolin induced production of cAMP while inverse agonists will further increase forskolin induced production of cAMP. EC50 of agonists were calculated as follows. The maximal amount of cAMP produced by forskolin compared to the level of cAMP inhibited by 1 uM CP55940 is defined as 100%. […] Data was analyzed using a four-parameter logistic model. (Model 205 of XLfit 4.0).
# [1] = agonist EC50, inhibition of forskolin-stimulated cAMP synthesis, CHO cells expressing human CB2R, mean, read-out: CB2 CAMP @ EC50 nM (mean)
# T1 sequence (P34972 whole entry): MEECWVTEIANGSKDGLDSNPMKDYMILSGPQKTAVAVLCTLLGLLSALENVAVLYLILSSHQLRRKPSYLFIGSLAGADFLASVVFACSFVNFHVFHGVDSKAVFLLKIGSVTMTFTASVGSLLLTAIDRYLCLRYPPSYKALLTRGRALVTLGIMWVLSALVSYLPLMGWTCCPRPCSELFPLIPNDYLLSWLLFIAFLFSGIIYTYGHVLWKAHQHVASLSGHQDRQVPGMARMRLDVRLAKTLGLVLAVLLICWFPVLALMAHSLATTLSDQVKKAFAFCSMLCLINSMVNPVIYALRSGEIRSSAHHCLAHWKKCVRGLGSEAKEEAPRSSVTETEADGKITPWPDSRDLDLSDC
SMILES,EC50 [1],EC50
"COCC(C)(C)c1cc(NC(=O)[C@@H]2CCCCN2C(=O)N2CCS(=O)(=O)CC2)no1 [(S)-1-(1,1-Dioxo-1λ^6-thiomorpholine-4-carbonyl)-piperidine-2-carboxylic acid [5-(2-methoxy-1,1-dimethyl-ethyl)-isoxazol-3-yl]-amide]",162 nM,–
"CC(C)(C)c1cc(NC(=O)[C@@H]2CCCCN2C(=O)C2CCS(=O)(=O)C2)no1 (stereo partly drawn) [(S)-1-(1,1-Dioxo-tetrahydro-1λ^6-thiophene-3-carbonyl)-piperidine-2-carboxylic acid (5-tert-butyl-isoxazol-3-yl)-amide]",–,17 nM
"CC(C)(C)c1cc(NC(=O)[C@@H]2CCCCN2C(=O)C(F)(F)F)no1 [(S)-1-(2,2,2-Trifluoro-acetyl)-piperidine-2-carboxylic acid (5-tert-butyl-isoxazol-3-yl)-amide]",–,48 nM
CC(C)(C)c1cc(NC(=O)[C@@H]2CCCCN2C(=O)CN2CCOCC2)no1 [(S)-1-(2-Morpholin-4-yl-acetyl)-piperidine-2-carboxylic acid (5-tert-butyl-isoxazol-3-yl)-amide],188 nM,–
CC(C)(C)c1cc(NC(=O)[C@@H]2CCCCN2C(=O)CN2CCCC2)no1 [(S)-1-(2-Pyrrolidin-1-yl-acetyl)-piperidine-2-carboxylic acid (5-tert-butyl-isoxazol-3-yl)-amide],431 nM,–
"CC(C)(C)c1cc(NC(=O)[C@@H]2CCCCN2Cc2ccc(F)c(F)c2)no1 [(S)-1-(3,4-Difluoro-benzyl)-piperidine-2-carboxylic acid (5-tert-butyl-isoxazol-3-yl)-amide]",–,0.58 nM
CC(C)(C)c1cc(NC(=O)[C@@H]2CCCCN2C(=O)c2cccc(Cl)c2)no1 [(S)-1-(3-Chloro-benzoyl)-piperidine-2-carboxylic acid (5-tert-butyl-isoxazol-3-yl)-amide],–,44 nM
"CC(C)(C)c1cc(NC(=O)[C@@H]2CCCCN2C(=O)C2CCC(F)(F)CC2)on1 [(S)-1-(4,4-Difluoro-cyclohexanecarbonyl)-piperidine-2-carboxylic acid (3-tert-butyl-isoxazol-5-yl)-amide]",–,1 nM
"CC(C)(C)c1cc(NC(=O)[C@@H]2CCCCN2C(=O)C2CCC(F)(F)CC2)no1 [(S)-1-(4,4-Difluoro-cyclohexanecarbonyl)-piperidine-2-carboxylic acid (5-tert-butyl-isoxazol-3-yl)-amide]",–,4.6 nM
"O=C(Nc1ccc(C(F)(F)F)cn1)[C@@H]1CCCCN1C(=O)C1CCC(F)(F)CC1 [(S)-1-(4,4-Difluoro-cyclohexanecarbonyl)-piperidine-2-carboxylic acid (5-trifluoromethyl-pyridin-2-yl)-amide]",282 nM,–
"CC(C)(C)c1cc(NC(=O)[C@H]2CCCN(C(=O)C3CCC(F)(F)CC3)C2)no1 [(S)-1-(4,4-Difluoro-cyclohexanecarbonyl)-piperidine-3-carboxylic acid (5-tert-butyl-isoxazol-3-yl)-amide]",–,119 nM
"CC(C)(C)c1cc(NC(=O)[C@@H]2CCCCN2C(=O)N2CCC(F)(F)CC2)no1 [(S)-1-(4,4-Difluoro-piperidine-1-carbonyl)-piperidine-2-carboxylic acid (5-tert-butyl-isoxazol-3-yl)-amide]",–,3.7 nM
CC(C)(C)c1cc(NC(=O)[C@@H]2CCCCN2S(=O)(=O)c2ccc(Cl)cc2)no1 [(S)-1-(4-Chloro-benzenesulfonyl)-piperidine-2-carboxylic acid (5-tert-butyl-isoxazol-3-yl)-amide],–,21 nM
CC(C)(C)c1cc(NC(=O)[C@@H]2CCCC(=O)N2c2ccc(Cl)cc2)on1 [(S)-1-(4-Chloro-phenyl)-6-oxo-piperidine-2-carboxylic acid (3-tert-butyl-isoxazol-5-yl)-amide],181 nM,–
CC(C)(C)c1cc(NC(=O)[C@@H]2CCCCCN2c2ccc(Cl)cc2)no1 [(S)-1-(4-Chloro-phenyl)-azepane-2-carboxylic acid (5-tert-butyl-isoxazol-3-yl)-amide],–,0.4 nM
CC(C)(C)c1cc(NC(=O)[C@@H]2CCCCN2C(=O)c2ccc(F)cc2)no1 [(S)-1-(4-Fluoro-benzoyl)-piperidine-2-carboxylic acid (5-tert-butyl-isoxazol-3-yl)-amide],–,2.2 nM
COc1ccc(S(=O)(=O)N2CCCC[C@H]2C(=O)Nc2cc(C(C)(C)C)on2)cc1 [(S)-1-(4-Methoxy-benzenesulfonyl)-piperidine-2-carboxylic acid (5-tert-butyl-isoxazol-3-yl)-amide],–,27 nM
CC(C)(C)c1cc(NC(=O)[C@@H]2CCCCN2C(=O)C[C@H]2CCCO2)no1 [(S)-1-((R)-2-Tetrahydro-furan-2-yl-acetyl)-piperidine-2-carboxylic acid (5-tert-butyl-isoxazol-3-yl)-amide],–,94 nM
CC(C)(C)c1cc(NC(=O)[C@@H]2CCCCCN2C2CCOCC2)no1 [(S)-1-(Tetrahydro-pyran-4-yl)-azepane-2-carboxylic acid (5-tert-butyl-isoxazol-3-yl)-amide],–,0.18 nM
O=C(Nc1nc(C2CCCCC2)cs1)[C@@H]1CCCCN1C1CCOCC1 [(S)-1-(Tetrahydro-pyran-4-yl)-piperidine-2-carboxylic acid (4-cyclohexyl-thiazol-2-yl)-amide],65 nM,–
O=C(Nc1nc2cc(Cl)ccc2s1)[C@@H]1CCCCN1C1CCOCC1 [(S)-1-(Tetrahydro-pyran-4-yl)-piperidine-2-carboxylic acid (5-chloro-benzothiazol-2-yl)-amide],206 nM,–
CC(C)(C)c1cc(NC(=O)[C@@H]2CCCCCN2CC2CCOCC2)no1 [(S)-1-(Tetrahydro-pyran-4-ylmethyl)-azepane-2-carboxylic acid (5-tert-butyl-isoxazol-3-yl)-amide],–,0.03 nM
"CCn1nc(NC(=O)[C@@H]2CCCCN2CC2CCOCC2)nc1-c1ccccc1 [(S)-1-(Tetrahydro-pyran-4-ylmethyl)-piperidine-2-carboxylic acid (1-ethyl-5-phenyl-1H-1,2,4-triazol-3-yl)-amide]",8.6 nM,–
O=C(Nc1ccc(C(F)(F)F)c(F)c1)[C@@H]1CCCCN1CC1CCOCC1 [(S)-1-(Tetrahydro-pyran-4-ylmethyl)-piperidine-2-carboxylic acid (3-fluoro-4-trifluoromethyl-phenyl)-amide],1.8 nM,–
"CC(C)c1nsc(NC(=O)[C@@H]2CCCCN2CC2CCOCC2)n1 [(S)-1-(Tetrahydro-pyran-4-ylmethyl)-piperidine-2-carboxylic acid (3-isopropyl-1,2,4-thiadiazol-5-yl)-amide]",208 nM,–
"O=C(Nc1nc(-c2ccccc2)ns1)[C@@H]1CCCCN1CC1CCOCC1 [(S)-1-(Tetrahydro-pyran-4-ylmethyl)-piperidine-2-carboxylic acid (3-phenyl-1,2,4-thiadiazol-5-yl)-amide]",1.2 nM,–
"CC(C)(C)c1nsc(NC(=O)[C@@H]2CCCCN2CC2CCOCC2)n1 [(S)-1-(Tetrahydro-pyran-4-ylmethyl)-piperidine-2-carboxylic acid (3-tert-butyl-1,2,4-thiadiazol-5-yl)-amide]",–,12 nM
CC(C)(C)c1cc(NC(=O)[C@@H]2CCCCN2CC2CCOCC2)sn1 [(S)-1-(Tetrahydro-pyran-4-ylmethyl)-piperidine-2-carboxylic acid (3-tert-butyl-isothiazol-5-yl)-amide],–,0.3 nM
O=C(Nc1nc(C2CCCCC2)cs1)[C@@H]1CCCCN1CC1CCOCC1 [(S)-1-(Tetrahydro-pyran-4-ylmethyl)-piperidine-2-carboxylic acid (4-cyclohexyl-thiazol-2-yl)-amide],9 nM,–
